Experimental data reported in US20200032271A1, “COMBINATION THERAPY WITH LIPOSOMAL ANTISENSE OLIGONUCLEOTIDES” (Bio-Path Holdings, Inc., priority 2016, published 2020).
Where “and” joins values, the source holds several entries; their conditions need not be identical. Equal entries are not always repeated. [PEt] = P-ethoxy (ethyl phosphotriester) internucleoside linkage

Experiments:
[1] = in vivo
Description: Each participant who receives study drug will be closely monitored for AEs. An AE is any untoward medical occurrence associated with the use of a drug in humans, whether or not considered drug related. Adverse events include any signs, symptoms, illnesses, or diagnoses that appear or worsen during the course of the study. An AE may be an intercurrent illness, an injury, or any concomitant impairment of the participant's health. All AEs occurring at any time from the time of consent through the end of treatment visit will be reported regardless of the etiology of the event. The NCI's CTCAE v4.03 will be used for grading AEs.
The causal relationship to BP1001 IP or Das for all AEs will be assessed as follows: (1) definitely related—AEs clearly attributable to study regimen administration; (2) probably related—AEs for which there is a reasonable possibility of causal association to study regimen; (3) possibly related—AEs for which there is confounding by comorbidities, medications or other considerations but for which it is not unreasonable that the AE may have been caused by study regimen; or (4) not related—AEs that are considered clearly not causally related to study regimen, or for which there is a clear alternative explanation

[2] = Multiple-dose toxicity study in mice; conditions: mouse
[3] = system: acute myeloid leukemia (AML) cells; test: Cytarabine cytotoxicity after BP1001 pretreatment; assay type: cell-based; conditions: preclinical studies
[4] = system: imatinib-sensitive and imatinib-resistant CML cell lines; test: Growth inhibition and ERK1,2/Akt phosphorylation in CML cell lines; assay type: cell-based; conditions: preclinical studies
Description: (§1) BP1001 is a neutral liposome incorporated with the nuclease-resistant, hydrophobic P-ethoxy antisense oligos targeted to Grb2 mRNA. In preclinical studies, BP1001 was effective in inducing growth inhibition and decreasing ERK1,2 and Akt phosphorylation in imatinib-sensitive and imatinib-resistant CML cell lines.

[5] = system: five strains of Salmonella; test: Ames mutagenicity study; assay type: cell-based; conditions: presence and absence of S-9
Procedure: BP1001 was tested in an Ames mutagenicity study. Sodium chloride (0.9%) was added to vials of BP1001 containing 5 mg of Grb2 oligonucleotide. The sample was tested against five strains of Salmonella in various concentrations in the presence and absence of the S-9 enzyme activation system. The sample was not mutagenic to the strains tested.

[6] = system: K562; test: Inhibition of proliferation of leukemic cell lines by BP1001; assay type: cell-based, human; conditions: 4 days
Description: as §1

[7] = system: BV173; test: as above; assay type: cell-based, human; conditions: 5 days
Description: as §1

[8] = system: ALL-1; test: as above; assay type: cell-based, human; conditions: 5 days
Description: as §1

[9] = system: HL60 (Ph-negative, Bcr-Abl negative); test: as above; assay type: cell-based, human; conditions: [BP1001] 0-12 μM, 5 days
Description: as §1

[10] = system: CHO cells; test: In vitro mammalian chromosome aberration test; assay type: cell-based; conditions: non-activated and S9-activated
Procedure: BP1001 was tested in the chromosome aberration assay using CHO cells in both the absence and presence of an Aroclor-induced S9 activation system. A preliminary toxicity test was performed to establish the dose range for the chromosome aberration assay. The chromosome aberration assay was used to evaluate the clastogenic potential of the BP1001. Based on the findings of this study, BP1001 was concluded to be negative for the induction of structural and numerical chromosome aberrations in CHO cells in both the non-activated and the S9-activated test systems.

[11] = system: Grb2; test: Selective inhibition of Grb2 protein production (SDS-PAGE, blot) in BV173 and ALL-1 cells; assay type: cell-based, human; conditions: 4 to 8 μM, three days, Crk1 as control protein
Procedure: FIGS. 5A-B. Selective inhibition of the production of Grb2 proteins. […] After three days of culture, protein-containing layers were prepared and subjected to SDS-PAGE and transferred to nitrocellulose membranes. Blots were cut into sections and incubated with antibodies specific for Grb2 (target) or Crk1 (control) protein. BP1001 is a neutral liposome incorporated with the nuclease-resistant, hydrophobic P-ethoxy antisense oligos targeted to Grb2 mRNA.

[12] = system: Grb2; test: Flow cytometry of Grb2 levels in circulating leukemia cells of patients; assay type: in vivo, human; conditions: for Grb2 decrease (%) (Day 15) / Grb2 decrease (%) (Day 22 or end-of-treatment): individual subjects
Description: (§2) Flow cytometry was used to determine the levels of Grb2 and pErk proteins in the circulating leukemia cells of patients who were on BP1001 single agent therapy, and were reported as median fluorescent intensity (MFI). MFI of Grb2 and pErk during treatment were compared to those at baseline.
Peripheral blood was collected from patients in cohorts 3, 4, 5, and 6, before being dosed on Cycle 1 days 1, 8, 15 and 22, and Cycle 2 day 1. White blood cells were isolated from peripheral blood using BD Vacutainer CPT cell preparation tubes with sodium heparin (BD Dickinson), fixed and stored in −80° C. freezer. Flow cytometry was utilized to determine Grb2 and phosphorylated Erk1,2 (pErk) levels in CD33-expressing cells using a validated method (Flow Contract Site Laboratory, Bothell, Wash., USA).
as §2, with “utilized” for “used”, “baseline (Table 7).” for “baseline.”

[13] = system: 32Dp210 Bcr-Abl positive leukemia cells; test: Survival of mice injected with 32Dp210 Bcr-Abl positive leukemia cells, second study; assay type: in vivo
Procedure: In a second study in mice injected with 32Dp210 Bcr-Abl positive leukemia cells, treatment groups received BP1001 at 5, 10, or 15 mg/kg/dose administered intravenously beginning one day after injection of tumor cells, twice weekly for up to 7 weeks. Control groups received DOPC liposomes containing an oligonucleotide of random sequence (15 mg/kg/dose) on the same schedule. Mice were observed daily for moribundity/morbidity. Surviving mice in the control groups were euthanized on Day 41, and in the treatment groups on Day 48.

[14] = 15 and 25 mg oligo/kg i.v. daily for five days
[15] = 15 mg/kg/dose i.v. twice weekly

## BP1001: liposome-incorporated P-ethoxy antisense oligodeoxynucleotide (5′-ATATTTGGCGATGGCTTC-3′, SEQ ID NO: 1) specific to grb2 mRNA, in neutral DOPC liposomes (DNA, all [PEt], methylation of C not given here; incorporated in neutral DOPC liposomes)
[1]
  Infections and infestations ≥Grade 3, total events: (9/9)
  Infections and infestations ≥Grade 3, total patients: (9/9)
[2]; [14]
  WBC counts at two weeks post-injection, persisting at six weeks: Reduction
  morbidity or mortality: No signs of morbidity or mortality
[2]; multiple i.v. 15-25 mg/kg
  drug-related lesions in examined organs: no drug-related lesions
[3]
  effect of pretreatment on cytarabine cytotoxicity: enhances cytarabine cytotoxicity
[4]
  growth inhibition and decrease of ERK1,2 and Akt phosphorylation: effective
[5]
  mutagenicity: not mutagenic
[6]
  IC50: 8 µM
[6]; [BP1001] 0-12 μM
  Decrease in viability: 80%
[7]
  IC50: 8 µM
[7]; [BP1001] 0-10 μM
  Decrease in viability: 70%
[8]
  IC50: 4 µM
[8]; [BP1001] 0-6 μM
  Decrease in viability: 100%
[9]
  Decrease in viability: 0%
[10]
  induction of structural and numerical chromosome aberrations: negative
[11]
  Grb2 protein production: selectively inhibit Grb2 protein production
[12]; cohort 3, 20 mg/m^2
  Grb2 decrease (%) (Day 15): 0% (2×) and 56%
  Grb2 decrease (%) (Day 22 or end-of-treatment): 28% and 47% and 57%
[12]; cohort 4, 40 mg/m^2
  Grb2 decrease (%) (Day 15): 63% and 47%
  Grb2 decrease (%) (Day 22 or end-of-treatment): 54% and 0% and 34%
[12]; cohort 5, 60 mg/m^2
  Grb2 decrease (%) (Day 15): 0% and 57% and 54%
  Grb2 decrease (%) (Day 22 or end-of-treatment): 30% and 65% and 43%
[12]; cohort 6, 90 mg/m^2
  Grb2 decrease (%) (Day 15): 0% and 85% and 63%
  Grb2 decrease (%) (Day 22 or end-of-treatment): 0% and 91% and 40%
[12]; last measured sample
  average decrease in Grb2 levels: 49%
[12]; last measured sample (end of treatment or cycle 1 day 22), MFI vs baseline
  samples with ≥25% decrease of Grb2 levels: 10 out of 12
[13]; 5 mg/kg/dose i.v. twice weekly
  Mean survival duration: 20.8 ± 4.7 days
[13]; 10 mg/kg/dose i.v. twice weekly
  Mean survival duration: 22.2 ± 8.7 days
[13]; [15]
  Mean survival duration: 44.2 ± 8.5 days
  mice surviving to 48 days (end of study): 80%
